In patent US10040838B2, “CRHR2 peptide agonists and uses thereof” (JANSSEN PHARMACEUTICA NV, priority 2008, dated 2018):
pKd: −log10 of the molar value. Residues, ends and D or L forms follow the SMILES beside them. No end group written: not given here. *: point of attachment. Succinimide(1-Et,3-yl) = CCN1C(=O)CC(*)C1=O

target: T1, human CRHR2 (Homo sapiens, UniProt Q13324); experiment: cAMP assay in h-CRHR2 transfected SK-N-MC cells; assay type: cell-based; conditions: Table 12; Hill slope
T1 construct: expressed in transfected cells
T1 sequence (Q13324 1-411): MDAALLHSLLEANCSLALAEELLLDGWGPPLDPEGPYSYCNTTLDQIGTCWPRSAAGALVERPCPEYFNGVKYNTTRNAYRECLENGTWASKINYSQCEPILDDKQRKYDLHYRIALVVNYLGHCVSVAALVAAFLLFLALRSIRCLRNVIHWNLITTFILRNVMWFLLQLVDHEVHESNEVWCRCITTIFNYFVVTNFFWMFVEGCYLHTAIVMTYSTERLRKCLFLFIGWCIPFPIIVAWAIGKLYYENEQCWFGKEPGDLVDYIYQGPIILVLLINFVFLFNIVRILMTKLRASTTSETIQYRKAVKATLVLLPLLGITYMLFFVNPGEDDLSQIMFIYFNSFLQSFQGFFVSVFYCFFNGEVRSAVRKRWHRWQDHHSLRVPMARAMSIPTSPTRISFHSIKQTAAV
Method: The concentration required for 50% maximum effect (A50) was 0.4 nM.
Human CRHR1 (accession number X72304) or CRHR2 (accession number U34587) were cloned into pcDNA3.1/Zeo expression vector and stably transfected into SK-N-MC cells by electroporation. Cells were maintained in MEM w/Earl's Salt with 10% FBS, 50 I.U. penicillin, 50 μg/ml streptomycin, 2 mM L-glutamine, 1 mM sodium pyruvate and 0.1 mM nonessential amino acids, 600 μg/ml G418. Cells were grown at 37° C. in 5% CO2.
Cells were plated in 96-well tissue culture dishes (Biocoat from BD Biosciences) overnight at 50,000 cell/well. Cells were washed with PBS then resuspended in DMEM F-12 without phenol red, containing 10 μM isobutylmethylxanthine (IBMX). Cells were incubated with the peptides at concentrations ranging from 1 pM to 10 μM for 60 min at 37° Celsius. […] Forskolin (10 μM), a direct stimulant of adenylate cyclase, was used as positive control. The assays were stopped by the addition of 0.5 M HCl and mixing by orbital rotation for 2 h at 4° Celsius.
To assess the activity of the inventive peptide at the CRHR2, an intracellular cAMP measurement test using a Flash plate radioactive assay (Catalog No. Cus56088; Perkin Elmer, MA, U.S.A.) was employed.
Transfected SK-N-MC cells were plated in 96-well Biocoat tissue culture dishes (BD Biosciences, San Jose, Calif., U.S.A) overnight at 50,000 cell/well. Cells were first washed with PBS and then suspended with DMEM/F-12 without phenol red, containing […]. Suspended cells were transferred into a 96-well flash plate coated with scintillant fluid. Cells were incubated with peptides ranging from […], for 60 min, at 37° Celsius. Forskolin at 10 μM was used as positive control. After ligand stimulation, cells were lysed by the addition of 0.5M HCl and mixed by orbital rotation for 2 h at 4° Celsius in order to release intracellular cAMP into the media.
Media containing released intracellular cAMP was transferred to a 96-well flash plate coated with scintillant fluid containing an anti-cAMP antibody. In this assay, intracellular cAMP competes with ^125I-labeled cAMP binding to the antibody. To generate a standard curve, cAMP ranging from 2.5 to 250 pmoles/ml was included in the experiment. [^125I]-cAMP was measured on a TopCount scintillation counter (Perkin Elmer, MA, U.S.A).
Individual agonist concentration-response curve data were fitted to the Hill equation, see formula below, using GraphPad Prism (Graphpad Software, La Jolla, Calif., U.S.A.), to provide estimates of agonist concentration needed to generate one-half maximal response (A50), and the maximal asymptote (α) and Hill slope (nH) parameters. In this equation, [A] is the agonist concentration and E is the measured effect:
For display purposes the mean fitted parameter estimates were used to generate a single E/[A] curve shown superimposed on the mean experimental data. Potency estimates for agonists, pA50, are expressed as the negative logarithm of the midpoint of each curve and listed with their standard error of measurement (SEM). Logarithm base 10 of the agonist dose ratio (Log DR) values were calculated by subtraction of the test compound pA50 value from the corresponding h-SCP (SEQ ID NO:1) control pA50 value within the same assay batch. The SEM values of the Log DR values are given by the square root of the sum of the squared SEM values of the h-SCP (SEQ ID NO:1) control and test compound pA50 values.
Human and rat peptides (see Table 10) were used on the stimulation of h-CRHR1 or h-CRHR2 transfected SK-N-MC cells in the cAMP flash plate assay. Peptides were incubated for 1 hr at 37° Celsius. Curves were calculated using non-linear regression sigmoidal concentration-response analysis calculation in GraphPad Prism. The so obtained pA50 values are shown in Table 11 in addition to literature values. […]

Row | Molecule | nH
1 | TKFTLSLDVPTNIMNLLFNIAKAKNLRAQAAANAHLMAQI-OH [SEQ ID NO: 113, TKFTLSLDVPTNIMNLLFNIAKAKNLRAQAAANAHLMAQI, reference compound] | 1.07
2 | TLSLDVPTNIMNLLFNIAKAKNLRAQAAANAHLMAQI-NH2 [SEQ ID NO: 108, TLSLDVPTNIMNLLFNIAKAKNLRAQAAANAHLMAQI-NH2] | 0.82

same assay, conditions: Table 13; h-SCP control pA50 minus test compound pA50 within same assay batch

Row | Molecule | Log DR
3 | TKFTLSLDVPCNIMNLLFNIAKAKNLRAQAAANAHLMAQI-NH2 [SEQ ID NO: 12, TKFTLSLDVPCNIMNLLFNIAKAKNLRAQAAANAHLMAQI-NH2] | 1.72
4 | TKFTLSLCVPTNIMNLLFNIAKAKNLRAQAAANAHLMAQI-NH2 [SEQ ID NO: 9, TKFTLSLCVPTNIMNLLFNIAKAKNLRAQAAANAHLMAQI-NH2] | 1.89
5 | TKFTLSLDVPTNIMNLLFNIAKAKNLRAQAAANAHLMCQI-NH2 [SEQ ID NO: 39, TKFTLSLDVPTNIMNLLFNIAKAKNLRAQAAANAHLMCQI-NH2] | 0.41
6 | CC[C@H](C)[C@H](NC(=O)[C@H](CCC(N)=O)NC(=O)[C@H](C)NC(=O)[C@H](CCSC)NC(=O)[C@H](CC(C)C)NC(=O)[C@H](CSC1CC(=O)N(CC)C1=O)NC(=O)[C@H](C)NC(=O)[C@H](CC(N)=O)NC(=O)[C@H](C)NC(=O)[C@H](C)NC(=O)[C@H](C)NC(=O)[C@H](CCC(N)=O)NC(=O)[C@H](C)NC(=O)[C@H](CCCNC(=N)N)NC(=O)[C@H](CC(C)C)NC(=O)[C@H](CC(N)=O)NC(=O)[C@H](CCCCN)NC(=O)[C@H](C)NC(=O)[C@H](CCCCN)NC(=O)[C@H](C)NC(=O)[C@@H](NC(=O)[C@H](CC(N)=O)NC(=O)[C@H](Cc1ccccc1)NC(=O)[C@H](CC(C)C)NC(=O)[C@H](CC(C)C)NC(=O)[C@H](CC(N)=O)NC(=O)[C@H](CCSC)NC(=O)[C@@H](NC(=O)[C@H](CC(N)=O)NC(=O)[C@@H](NC(=O)[C@@H]1CCCN1C(=O)[C@@H](NC(=O)[C@H](CC(=O)O)NC(=O)[C@H](CC(C)C)NC(=O)[C@H](CO)NC(=O)[C@H](CC(C)C)NC(=O)[C@@H](NC(=O)[C@H](Cc1ccccc1)NC(=O)[C@H](CCCCN)NC(=O)[C@@H](N)[C@@H](C)O)[C@@H](C)O)C(C)C)[C@@H](C)O)[C@@H](C)CC)[C@@H](C)CC)C(N)=O (stereo partly shown) [SEQ ID NO: 43, TKFTLSLDVPTNIMNLLFNIAKAKNLRAQAAANAC(-NES) LMAQI-NH2] (H-TKFTLSLDVPTNIMNLLFNIAKAKNLRAQAAANAC(Succinimide(1-Et,3-yl))LMAQI-NH2; N-terminus assumed) | −0.32
7 | TKFCLSLDVPTNIMNLLFNIAKAKNLRAQAAANAHLMAQI-NH2 [SEQ ID NO: 5, TKFCLSLDVPTNIMNLLFNIAKAKNLRAQAAANAHLMAQI-NH2] | 0.76
8 | CC[C@H](C)[C@H](NC(=O)[C@H](CCC(N)=O)NC(=O)[C@H](C)NC(=O)[C@H](CCSC)NC(=O)[C@H](CC(C)C)NC(=O)[C@H](Cc1c[nH]cn1)NC(=O)[C@H](C)NC(=O)[C@H](CC(N)=O)NC(=O)[C@H](C)NC(=O)[C@H](C)NC(=O)[C@H](C)NC(=O)[C@H](CCC(N)=O)NC(=O)[C@H](CSC1CC(=O)N(CC)C1=O)NC(=O)[C@H](CCCNC(=N)N)NC(=O)[C@H](CC(C)C)NC(=O)[C@H](CC(N)=O)NC(=O)[C@H](CCCCN)NC(=O)[C@H](C)NC(=O)[C@H](CCCCN)NC(=O)[C@H](C)NC(=O)[C@@H](NC(=O)[C@H](CC(N)=O)NC(=O)[C@H](Cc1ccccc1)NC(=O)[C@H](CC(C)C)NC(=O)[C@H](CC(C)C)NC(=O)[C@H](CC(N)=O)NC(=O)[C@H](CCSC)NC(=O)[C@@H](NC(=O)[C@H](CC(N)=O)NC(=O)[C@@H](NC(=O)[C@@H]1CCCN1C(=O)[C@@H](NC(=O)[C@H](CC(=O)O)NC(=O)[C@H](CC(C)C)NC(=O)[C@H](CO)NC(=O)[C@H](CC(C)C)NC(=O)[C@@H](NC(=O)[C@H](Cc1ccccc1)NC(=O)[C@H](CCCCN)NC(=O)[C@@H](N)[C@@H](C)O)[C@@H](C)O)C(C)C)[C@@H](C)O)[C@@H](C)CC)[C@@H](C)CC)C(N)=O (stereo partly shown) [SEQ ID NO: 47, TKFTLSLDVPTNIMNLLFNIAKAKNLRC(-NES)QA AANAH LMAQI-NH2] (H-TKFTLSLDVPTNIMNLLFNIAKAKNLRC(Succinimide(1-Et,3-yl))QAAANAHLMAQI-NH2; N-terminus assumed) | −0.03
9 | TKFTLSLDVPTNIMNLLFNIAKAKNLCAQAAANAHLMAQI-NH2 [SEQ ID NO: 28, TKFTLSLDVPTNIMNLLFNIAKAKNLCAQAAANAHLMAQI-NH2] | 0.16

Other lines, results leading:

Row | Log DR | Molecule
10 | 2.08 | TKFTLCLDVPTNIMNLLFNIAKAKNLRAQAAANAHLMAQI-NH2 [SEQ ID NO: 7, TKFTLCLDVPTNIMNLLFNIAKAKNLRAQAAANAHLMAQI-NH2]
11 | 0.61 | TKFTCSLDVPTNIMNLLFNIAKAKNLRAQAAANAHLMAQI-NH2 [SEQ ID NO: 6, TKFTCSLDVPTNIMNLLFNIAKAKNLRAQAAANAHLMAQI-NH2]
12 | >2.95 | TKFTLSLDVPTNIMNLLFNIAKAKNLRAQAAANAHLCAQI-NH2 [SEQ ID NO: 38, TKFTLSLDVPTNIMNLLFNIAKAKNLRAQAAANAHLCAQI-NH2]
13 | 1.30 | TKFTLSLDCPTNIMNLLFNIAKAKNLRAQAAANAHLMAQI-NH2 [SEQ ID NO: 10, TKFTLSLDCPTNIMNLLFNIAKAKNLRAQAAANAHLMAQI-NH2]
14 | 0.52 | TKFTLSLDVPTNIMNLLFNICKAKNLRAQAAANAHLMAQI-NH2 [SEQ ID NO: 22, TKFTLSLDVPTNIMNLLFNICKAKNLRAQAAANAHLMAQI-NH2]
15 | >2 | TKFTLSLDVPTNCMNLLFNIAKAKNLRAQAAANAHLMAQI-NH2 [SEQ ID NO: 14, TKFTLSLDVPTNCMNLLFNIAKAKNLRAQAAANAHLMAQI-NH2]
16 | 0.77 | TKFTLSLDVPTNIMNLLFNCAKAKNLRAQAAANAHLMAQI-NH2 [SEQ ID NO: 21, TKFTLSLDVPTNIMNLLFNCAKAKNLRAQAAANAHLMAQI-NH2]
17 | 0.55 | TKFTLSLDVPTNIMNLLFNIAKAKNLRAQAAANAHLMACI-NH2 [SEQ ID NO: 40, TKFTLSLDVPTNIMNLLFNIAKAKNLRAQAAANAHLMACI-NH2]

same assay, conditions: tested as antagonists of h-SCP at 10 μM; read-out: receptor affinity (KA)

Row | Molecule | pKd
18 | SLDVPTNIMNLLFNIAKAKNLRAQAAANAHLMAQI-NH2 [SEQ ID NO: 110, SLDVPTNIMNLLFNIAKAKNLRAQAAANAHLMAQI-NH2] | > 5.00

same assay, conditions: versus h-SCP (SEQ ID NO:1)

Row | Molecule | fold less potent than the amidated parent peptide
19 | TKFTLSLDVPTNIMNLLFNIAKAKNLRAQAAANAHLMAQI-OH [SEQ ID NO: 113, TKFTLSLDVPTNIMNLLFNIAKAKNLRAQAAANAHLMAQI, reference compound] | approximately 200 fold
